Assay [1] has as its system P. aeruginosa (ATCC CRM 9027) biofilm. The format is cell-based, Pseudomonas aeruginosa. As to conditions: ATCC CRM 9027, 24 h. As for the experimental part:
(§1) The anti-biofilm activities of the peptides against S. aureus (ATCC 6538), MRSA (NCTC 12493), E. faecalis (NCTC 12493), E. coli (ATCC CRM 8739), K. pneumoniae (ATCC 43816), and P. aeruginosa (ATCC CRM 9027) were evaluated.
(§2) The bacteria were inoculated in a different medium (Gram-positive bacteria were in TSB and Gram-negative bacteria were in LB) overnight, and the subculture was conducted in the same medium. When the bacteria reached a specific density, 100 µL of the dilution was added to each well of the 96-well microplate. Then 1 µL of peptide at a series of concentrations, the same concentration in the antimicrobial assay, were added into the well together with the bacteria. The plates were put into a moist shaking incubator with a speed of 200 rpm, and the temperature was set at 37 ℃. After a 24-h incubation, the liquid in the wells was aspirated, and each was washed twice by 100 µL PBS. One hundred µL of methanol were added into each well to stabilise the biofilm. After air-drying, 100 µL crystal violet was used to dye the biofilm, and they were dissolved in the 100 µL glacial acidic acid after drying. The solutions were transferred to a new microplate, and the absorbance of each well was tested by a microplate reader (EL808, Biolise BioTek Winooski, Minneapolis, MN, USA) at 595 nm wavelength. MBIC was the minimum concentration of the peptide showing no biofilm formation.
(§3) The bacteria were inoculated in a different medium (Gram-positive bacteria were in TSB and Gram-negative bacteria were in LB) overnight, and the subculture was conducted in the same medium. When the bacteria reached a specific density, 100 µL of the dilution was added to each well of the 96-well microplates. The plates were put into a moist shaking incubator with a speed of 200 rpm and the temperature was 37 ℃. After a 24 h incubation, the liquid in the wells was aspirated and they were washed twice by 100 µL PBS of each well. The peptides with the same concentrations were diluted in the corresponding medium and 100 µL were added into each well. After a 24-h incubation, the liquid in the wells was aspirated and they were washed twice by 100 µL PBS. One hundred µL of methanol were added into the wells to stabilise the biofilms. After being air-dried, 100 µL crystal violet was used to dye the biofilm, and they were dissolved in the 100 µL glacial acidic acid after drying. The solutions were transferred to a new microplate, and the absorbance of each well was tested by a microplate reader (EL808, Biolise BioTek Winooski, Minneapolis, USA) at 595 nm wavelength.

A further assay deals with E. faecalis (NCTC 12493). Format: cell-based, Enterococcus faecalis. Here is the method: (§4) The method of antimicrobial assay is based on the Methods for Dilution Antimicrobial Susceptibility Tests for Bacteria that Grow Aerobically from the Clinical and Laboratory Standards Institute (CLSI).The antimicrobial activities of peptides were evaluated against Gram-positive bacteria S. aureus (ATCC 6538), MRSA (NCTC 12493), E. faecalis (NCTC 12493), Gram-negative bacteria E. coli (ATCC CRM 8739), K. pneumoniae (ATCC 43816), P. aeruginosa (ATCC CRM 9027), yeast C. albicans (ATCC CRM 10231) and clinical isolates MRSA (B042 V2E1 A), E. coli (ATCC BAA-2340), K. pneumoniae (ATCC BAA-1705), P. aeruginosa (B004 V2S2 B).
(§5) At the first stage of the assay, 20 μL bacteria were cultured in 100 mL Mueller Hinton Broth (MHB) or Yeast Extract–Peptone–Dextrose broth (YPD-B), respectively, and was incubated overnight. Then, microorganisms were subcultured in 20 mL fresh MHB or YPD-B to achieve cultures in the logarithmic phase (1 × 10^8 CFU/mL), which can be verified by optical density (OD) (The OD of Gram-positive bacteria is 0.23, OD of Gram-negative bacteria is 0.4, and OD of yeast is 0.15), and viable cell counts. Then, the medium was used to dilute the cultures to specific cell densities (Gram-negative and Gram-positive bacteria: 5 × 10^5 CFU/mL; yeast: 1 × 10^6 CFU/mL), which were the final concentrations of bacterial suspensions used in the assay. The peptides were dissolved in DMSO to reach a final concentration of 512 µM. A series of two-fold dilutions ranging from 512 µM to 1 µM were dosed in the 96-well plates.
(§6) Antimicrobial assays were conducted in 96-well plates, which were divided into five groups, including a negative control group (PBS), a positive control group (20 μg/mL norfloxacin for bacteria and 10 μg/mL amphotericin B for yeast), vehicle control (1% DMSO), blank control (MHB or YPD-B), and a peptide group. Each microorganism had five repetitions, and each well contained 1 µL corresponding solution and 99 µL culture. After incubation at 37 °C overnight, the absorbance of each well was tested by a microplate reader (EL808, Biolise BioTek Winooski, Minneapolis, USA) under a 550 nm wavelength. The MIC is the lowest concentration at which no bacterial growth can be observed.
(§7) The next day, 10 µL of every clear well was taken out to be cultured on a Mueller Hinton Agar (MHA) plate and incubated at 37 °C for 16–20 h. The MBC is the lowest concentration without any bacterial colonies, which means at this concentration, the peptide reduces the viability of the pathogen by more than 99.9%.

In assay [2] the test system is C. albicans (ATCC CRM 10231). Format: cell-based, Candida albicans. Here is the method:
as §4, §5, §6, §7

The subject of assay [3] is E. faecalis (NCTC 12493) biofilm. The format is cell-based, Enterococcus faecalis. As to conditions: NCTC 12493, 24 h. As for the experimental part:
as §1, §2, §3

The results in this text go back to PMC8388802, “Study on the Structure-Activity Relationship of an Antimicrobial Peptide, Brevinin-2GUb, from the Skin Secretion of Hylarana guentheri” (Antibiotics, 2021).

In brackets after ≈: the same amount, converted by molar mass. Where a SMILES comes first, the peptide text is derived from it.

`CC[C@H](C)[C@H](NC(=O)[C@@H](NC(=O)CN)C(C)C)C(=O)N[C@H](C(=O)N[C@@H](CCCCN)C(=O)N[C@H](C(=O)N[C@@H](CC(C)C)C(N)=O)[C@@H](C)O)[C@@H](C)CC` [Peptide 7-tB2U-K] (H-GVIIKTL-NH2): in assay [1], the MBEC is greater than 512 µM and the MBIC is greater than 512 µM. Besides, in the assay with E. faecalis (NCTC 12493), the MBC was greater than 512 µM and the MIC – broadly, the least concentration at which growth counts as inhibited – was greater than 512 µM. Besides, in assay [2], the MBC was greater than 512 µM and the MIC is greater than 512 µM. For the same compound, in assay [3], the MBEC was greater than 512 µM and the MBIC is greater than 512 µM.
Take `CC[C@H](C)[C@H](NC(=O)[C@@H](NC(=O)CN)C(C)C)C(=O)N[C@H](C(=O)N[C@@H](CCCCN)C(=O)N[C@H](C(=O)N[C@@H](CC(C)C)C(=O)N[C@@H](CCCCN)C(=O)NCC(=O)N[C@@H](C)C(=O)N[C@@H](C)C(=O)N[C@@H](CCCCN)C(=O)N[C@H](C(=O)N[C@H](C(N)=O)C(C)C)[C@@H](C)O)[C@@H](C)O)[C@@H](C)CC` [Peptide 14-tB2U-K] (H-GVIIKTLKGAAKTV-NH2): the MBEC in assay [1] and in assay [3] was greater than 512 µM throughout. Also, the MBIC in assay [1] and in assay [3] was greater than 512 µM each time. Besides, the MBC (against E. faecalis (NCTC 12493); in assay [2]) was greater than 512 µM each time. The MIC (against E. faecalis (NCTC 12493); in assay [2]) was greater than 512 µM in each case.
In the case of `CC[C@H](C)[C@H](NC(=O)[C@@H](NC(=O)CN)C(C)C)C(=O)N[C@H](C(=O)N[C@@H](CCCCN)C(=O)N[C@@H](CCCCN)C(=O)N[C@@H](CC(C)C)C(=O)N[C@@H](CCCCN)C(=O)NCC(=O)N[C@@H](C)C(=O)N[C@@H](C)C(=O)N[C@@H](CCCCN)C(=O)N[C@@H](CCCCN)C(=O)N[C@H](C(=O)N[C@@H](C)C(=O)N[C@@H](C)C(=O)N[C@@H](CCCCN)C(=O)N[C@@H](CC(C)C)C(=O)N[C@@H](CC(C)C)C(N)=O)C(C)C)[C@@H](C)CC` [tB2U-6K] (H-GVIIKKLKGAAKKVAAKLL-NH2), in assay [1], the MBEC is greater than 512 µM and the MBIC was determined as 32 µM. In the assay on E. faecalis (NCTC 12493), this compound displayed an MBC of 64 µM (≈ 125 µg/mL) and an MIC of 64 µM (≈ 125 µg/mL). In assay [2], the MBC was 256 µM (≈ 499 µg/mL) and it took 256 µM (≈ 499 µg/mL) to inhibit growth (MIC). In assay [3], this compound displayed an MBEC greater than 512 µM and an MBIC of 64 µM.
In assay [1], `CC[C@H](C)[C@H](NC(=O)[C@@H](NC(=O)CN)C(C)C)C(=O)N[C@H](C(=O)N[C@@H](CCCCN)C(=O)N[C@H](C(=O)N[C@@H](CC(C)C)C(=O)N[C@@H](CCCCN)C(=O)NCC(=O)N[C@@H](C)C(=O)N[C@@H](C)C(=O)N[C@@H](CCCCN)C(=O)N[C@H](C(=O)N[C@H](C(=O)N[C@@H](C)C(=O)N[C@@H](C)C(=O)N[C@@H](CCCCN)C(=O)N[C@@H](CC(C)C)C(=O)N[C@@H](CC(C)C)C(N)=O)C(C)C)[C@@H](C)O)[C@@H](C)O)[C@@H](C)CC` [tB2U-K] (H-GVIIKTLKGAAKTVAAKLL-NH2) showed an MBEC greater than 512 µM and an MBIC of 128 µM. In the assay on E. faecalis (NCTC 12493), this compound had an MBC of 32 µM (≈ 60.6 µg/mL) and an MIC of 32 µM (≈ 60.6 µg/mL). In assay [2], this compound showed an MBC of 64 µM (≈ 121 µg/mL) and an MIC of 64 µM (≈ 121 µg/mL). For the same compound, in assay [3], the MBEC was greater than 512 µM and the MBIC was found to be 32 µM.
For `CC[C@H](C)[C@H](NC(=O)[C@@H](NC(=O)CN)C(C)C)C(=O)N[C@H](C(=O)N[C@@H](CC(=O)O)C(=O)N[C@H](C(=O)N[C@@H](CC(C)C)C(=O)N[C@@H](CCCCN)C(=O)NCC(=O)N[C@@H](C)C(=O)N[C@@H](C)C(=O)N[C@@H](CCCCN)C(=O)N[C@H](C(=O)N[C@H](C(=O)N[C@@H](C)C(=O)N[C@@H](C)C(=O)N[C@@H](CCC(=O)O)C(=O)N[C@@H](CC(C)C)C(=O)N[C@@H](CC(C)C)C(N)=O)C(C)C)[C@@H](C)O)[C@@H](C)O)[C@@H](C)CC` [tB2U-α] (H-GVIIDTLKGAAKTVAAELL-NH2), in assay [1], the MBEC was greater than 512 µM and the MBIC was greater than 512 µM. In the assay on E. faecalis (NCTC 12493), this compound returned an MBC greater than 512 µM and an MIC greater than 512 µM. In assay [2], the MBC is greater than 512 µM and the MIC is greater than 512 µM. In assay [3], this compound displayed an MBEC greater than 512 µM and an MBIC greater than 512 µM.
Consider `CC[C@H](C)[C@H](NC(=O)[C@@H](NC(=O)CN)C(C)C)C(=O)N[C@H](C(=O)N[C@@H](CC(=O)O)C(=O)N[C@H](C(=O)N[C@@H](CC(C)C)C(=O)N[C@@H](CCCCN)C(=O)NCC(=O)N[C@@H](C)C(=O)N[C@@H](C)C(=O)N[C@@H](CCCCN)C(=O)N[C@H](C(=O)N[C@H](C(=O)N[C@@H](C)C(=O)N[C@@H](C)C(=O)N[C@@H](CCC(=O)O)C(=O)N[C@@H](CC(C)C)C(=O)N[C@@H](CC(C)C)C(=O)N[C@@H](CCCNC(=N)N)C(=O)N[C@@H](CCCCN)C(=O)N[C@@H](C)C(=O)N[C@@H](Cc1c[nH]cn1)C(N)=O)C(C)C)[C@@H](C)O)[C@@H](C)O)[C@@H](C)CC` [tB2U] (H-GVIIDTLKGAAKTVAAELLRKAH-NH2), for which, in assay [1], the MBEC is greater than 512 µM and the MBIC is greater than 512 µM. In the assay on E. faecalis (NCTC 12493), the MBC is greater than 512 µM and the MIC was greater than 512 µM. In assay [2], the MBC is greater than 512 µM and the MIC was greater than 512 µM. For the same compound, in assay [3], the MBEC is greater than 512 µM and the MBIC was found to be 256 µM.
